Experimental data from publication PMC5318439, “The Novel Toll-Like Receptor 2 Agonist SUP3 Enhances Antigen Presentation and T Cell Activation by Dendritic Cells” (Frontiers in Immunology, 2017).
Where a SMILES comes first, the peptide text is derived from it. The star is where a group is joined. X1 = CCCCCCCCCCCCCCNC(=O)OC[C@H](C*)OC(=O)NCCCCCCCCCCCCCC; Palmitoyl = CCCCCCCCCCCCCCCC(=O)*

Assays:
CD8^+ cDCs = assay: Antigen cross-presentation by splenic CD8+ cDCs to OT-I CD8+ T cells in vitro; assay type: cell-based, mice; details: 200 nM; SUP3 versus Pam3
Protocol: Antigen presentation assays were performed as previously described ([38]). Briefly, ovalbumin (OVA) (10 µg/mL; Sigma A7641) pulsed cDCs were stimulated with or without TLR agonists for 4 h. OT-I CD8^+ T cells and OT-II CD4^+ T cells were purified and then labeled by carboxyfluorescein diacetate succinimidyl ester (CFSE) (1 µM; Molecular Probes C34554). CD8^+ cDCs were cocultured with OT-I CD8^+ T cells for 60 h, whereas CD11b^+ cDCs were cocultured with OT-II CD4^+ T cells for 96 h, both in the presence of granulocyte-macrophage colony-stimulating factor (GM-CSF) (20 ng/mL; Peprotech 315-03). Proliferated OT-I or OT-II T cells were defined as diluted CFSE signal analyzed by flow cytometry. The numbers of T cells were counted by AccuCheck counting beads (Molecular Probes PCB100). […] Cells were washed twice with cold medium and analyzed by flow cytometry.
Figure 3 SUP3 facilitated cross-presentation of ovalbumin (OVA) antigen by CD8^+ conventional dendritic cells (cDCs) in vitro. […] Cells were washed and cocultured with carboxyfluorescein diacetate succinimidyl ester (CFSE)-labeled OT-I CD8^+ T cells for 60 h and analyzed by flow cytometry. (A) The dividing OT-I cells were measured by reduced level of CFSE-labeling. […] (B) Absolute numbers of proliferated OT-I T cells were calculated. (C) Interferon-γ from the supernatant of coculture was determined by ELISA 24 h later. […]

splenic CD8^+ cDCs = assay: CD40 and CD86 expression on splenic CD8+ cDCs after i.v. administration; assay type: in vivo, mice; details: 2 nmol per mouse i.v., 1 h
Protocol: Figure 4 SUP3 stimulated maturation of CD8^+ conventional dendritic cells (cDCs). (A) Purified CD8^+ cDCs were treated with SUP3 (200 nM) or Pam3 (200 nM) in the presence of granulocyte-macrophage colony-stimulating factor (GM-CSF) (20 ng/mL) for 24 h. The surface expression of costimulatory and major histocompatibility complex (MHC) molecules were then analyzed by flow cytometry. Representative data from three independent experiments were shown. “Isotype” represented relative isotype antibody staining of Pam3 or SUP3 stimulated cells. (B) SUP3 (2 nmol per mouse), Pam3 (2 nmol per mouse), or PBS were i.v. injected into mice for 1 h. Splenic CD8^+ cDCs were enriched, and surface expression of CD40 and CD86 was analyzed by flow cytometry. Representative data from two independent experiments with three mice for each group were shown. (C) Purified CD8^+ cDCs were treated with SUP3 (200 nM) or Pam3 (200 nM) for indicated periods (0~120 min), and western blot analysis was performed with the cell lysate for phosphorylated p65 (p-p65), IκBα, p-ERK, ERK, p-JNK, JNK, p-p38, and p38. Blot of p38 was also regarded as loading control. (D) Purified CD8^+ cDCs were treated with CpG 1668 (20 nM), SUP3 (200 nM), or Pam3 (200 nM) in the presence of GM-CSF (20 ng/mL). Supernatants were harvested 24 and 48 h post-stimulation, and cytokines were measured by ELISA. […]

| Compound | enhancement of cross-presentation by CD8+ cDCs in vitro (CD8^+ cDCs) | expressions of CD40 and CD86 on splenic CD8+ cDCs in vivo (splenic CD8^+ cDCs) |
| --- | --- | --- |
| CCCCCCCCCCCCCCCC(=O)N[C@@H](CSC[C@@H](COC(=O)NCCCCCCCCCCCCCC)OC(=O)NCCCCCCCCCCCCCC)C(=O)NCC(=O)N[C@@H](CCCCN)C(=O)N[C@@H](CCCCN)C(=O)N[C@@H](CCCCN)C(=O)O [SUP3, (2S,5S,8S,14R,18R)-2,5,8-tris(4-aminobutyl)-4,7,10,13,21-pentaoxo-14-palmitamido-18-((tetradecylcarbamoyl)oxy)-20-oxa-16-thia-3,6,9,12,22-pentaazahexatriacontan-1-oic acid] (Palmitoyl-C(X1)GKKK-OH) | comparable | increased |
| Pam3CSK4 [reference compound] | comparable | increased |
